Laboratory results taken from patent publication US5023269A, “3-aryloxy-3-substituted propanamines” (Eli Lilly and Company, priority 1990, dated 1991).
Structures can show the parent of a compound that is named as a salt.

Tests used:
[1] = tested on: norepinephrine (NE) uptake; assay: Inhibition of norepinephrine uptake in vitro: synaptosomal uptake of 14C-l-norepinephrine in rat cortical synaptosomes; format: biochemical, rat (male Sprague-Dawley); settings: 100 nM 14C-NE, 37° C., 5 min
Description: (§1) This general procedure is set forth by Wong et al., in Drug Development Research 6:397-403 (1985).
(§2) Male Sprague-Dawley rats (110-150 g) from Harlan Industries (Cumberland, IN) were fed a Purina Chow ad libitum for at least 3 days before being used in the studies. Rats were killed by decapitation. Whole brains were removed and dissected. Cerebral cortex was homogenized in 9 volumes of a medium containing 0.32 M sucrose and 10 mM glucose. Crude synaptosomal preparations were isolated after differential centrifugation at 1,000 g for 10 min. and 17,000 g for 28 min. The final pellets were suspended in the same medium and kept in ice until use within the same day.
(§3) Synaptosomal uptake of ^3 H-serotonin(^3 H-5hydroxytryptamine, ^3 H-5HT) and ^14 C-l-norepinephrine (^14 C-NE) was determined as follows. Cortical synaptosomes (equivalent to 1 mg of protein) were incubated at 37° C. for 5 min in 1 ml of Krebs-bicarbonate medium containing also 10 mM glucose, 0.1 mM iproniazid, 1 mM ascorbic acid, 0.17 mM EDTA, 50 nM ^3 H-5HT and 100 nM ^14 C-NE The reaction mixture was immediately diluted with 2 ml of ice-chilled Krebs-bicarbonate buffer and filtered under vacuum with a cell harvester (Brandel, Gaithersburg, MD). Filters were rinsed twice with approximately 5 ml of ice-chilled 0.9% saline and were transferred to a counting vial containing 10 ml of scintillation fluid (PCS, Amersham, Arlington Heights, IL). Radioactivity was measured by a liquid scintillation spectrophotometer. Accumulation of ^3 H-5HT and ^14 C-NE at 4° C. represented the background and was subtracted from all samples.

serotonin (5HT) uptake = assay: Inhibition of 5HT uptake in vitro: synaptosomal uptake of 3H-serotonin in rat cortical synaptosomes; format: biochemical, rat (male Sprague-Dawley); settings: 50 nM 3H-5HT, 37° C., 5 min
Description: as §1, §2, §3

Row | IC50 [1] [nM] | IC50 (serotonin (5HT) uptake) [nM] | SMILES | percent inhibition at 1000 nM, NE (number in parentheses) [1] [%] | also measured
1 | 69 | 18 | CNCCC(Oc1cccc2ccccc12)c1ccsc1 (stereo not drawn) [Example 9, N-Methyl-3-(1-naphthalenyloxy)-3-(3-thienyl)propanamine oxalate] | – | –
2 | 22.7 | 20 | CNCCC(Oc1cccc2ccccc12)c1ccco1 (stereo not drawn) [Example 31, N-Methyl-3-(1-naphthalenyloxy)-3-(2-furanyl)propanamine oxalate] | – | –
3 | 510 | 50 | CN(C)CCC(Oc1cccc2ccccc12)c1nccs1 (stereo not drawn) [Example 32, N,N-Dimethyl-3-(1-naphthalenyloxy)-3-(2thiazolyl)propanamine oxalate] | – | –
4 | 725 | 62 | CN(C)CCC(Oc1cccc2ccccc12)c1ccc(Cl)s1 (stereo not drawn) [Example 5, N,N-Dimethyl-3-(1-naphthalenyloxy)-3-(5-chloro-2-thienyl)propanamine oxalate] | – | –
5 | 630 | 25 | CN(C)CCC(Oc1cccc2ccccc12)c1ccsc1 (stereo not drawn) [Example 8, N,N-Dimethyl-3-(1-naphthalenyloxy)-3-(3-thienyl)propanamine oxalate] | – | –
6 | – | 114 | CN(C)CCC(Oc1ccc(C(F)(F)F)c2ccccc12)c1cccs1 (stereo not drawn) [Example 6, N,N-Dimethyl-3-[4-(trifluoromethyl)-1naphthalenyloxy]-3-(2-thienyl)propanamine oxalate] | 9 | –
7 | 30 | 11 | CN(C)CCC(Oc1cccc2ccccc12)c1ccco1 (stereo not drawn) [Example 30, N,N-Dimethyl-3-(1-naphthalenyloxy)-3-(2furanyl)propanamine oxalate] | – | –
8 | 720 | 55 | Cc1ccc(C(CCN(C)C)Oc2cccc3ccccc23)s1 (stereo not drawn) [Example 3, N,N-Dimethyl-3-(1-naphthalenyloxy)-3-(5-methyl-2-thienyl)propanamine oxalate] | – | –
9 | – | 210 | CN(C)CCC(Oc1cccc2ccccc12)C1CCCCC1 (stereo not drawn) [Example 33, N,N-Dimethyl-3-(1-naphthalenyloxy)-3-(cyclohexyl)propanamine oxalate] | 47 | –
10 | – | 36 | CN(C)CCC(Oc1ccc(Cl)c2ccccc12)c1cccs1 (stereo not drawn) [Example 10, N,N-Dimethyl-3-(4-chloro-1-naphthalenyloxy)-3-(2-thienyl)propanamine oxalate] | 31 | –
11 | 205 | 70 | CNCCC(Oc1cccc2ccccc12)c1nccs1 (stereo not drawn) [Example 16, N-Methyl-3-(1-naphthalenyloxy)-3-(2-thiazolyl)propanamine oxalate] | – | –
12 | – | 58 | Cc1ccc(OC(CCN(C)C)c2cccs2)c2ccccc12 (stereo not drawn) [Example 12, N,N-Dimethyl-3-(4-methyl-1-naphthalenyloxy)-3-(2-thienyl)propanamine oxalate] | 40 | –
13 | – | 76 | Cc1ccsc1C(CCN(C)C)Oc1cccc2ccccc12 (stereo not drawn) [Example 4, N,N-Dimethyl-3-(1-naphthalenyloxy)-3-(3-methyl-2-thienyl)propanamine oxalate] | 41 | –
14 | 315 | 315 | CN(C)CCC(Oc1cccc2ccccc12)c1cccnc1 (stereo not drawn) [Example 37, N,N-Dimethyl-3-(1-naphthalenyloxy)-3-(3-pyridyl)propanamine oxalate] | – | –
15 | 600 | 13 | CN(C)CCC(Oc1cccc2ccccc12)c1cccs1 (stereo not drawn) [Example 1, N,N-Dimethyl-3-(1-naphthalenyloxy)-3-(2-thienyl)propanamine oxalate] | – | –

The remaining lines, values behind:

Row | SMILES | IC50 [1] [nM] | IC50 (serotonin (5HT) uptake) [nM] | percent inhibition at 1000 nM, NE (number in parentheses) [1] [%] | also measured
16 | CNCCC(Oc1cccc2ccccc12)C1CCCCC1 (stereo not drawn) [Example 15, N-Methyl-3-(1-naphthalenyloxy)-3-cyclohexylpropanamine oxalate] | 90 | 125 | – | –
17 | CNCCC(Oc1ccc(C(F)(F)F)cc1)c1cccs1 (stereo not drawn) [Example 20, N-Methyl-3-[4-(trifluoromethyl)phenoxy-3-(2-thienyl)propanamine oxalate] | – | 46 | 52 | –
18 | CN(C)CCC(Oc1ccc(Cl)cc1)c1cccs1 (stereo not drawn) [Example 25, N,N-Dimethyl-3-(4-chlorophenoxy)-3-(2-thienyl)propanamine oxalate] | 820 | 170 | – | –
19 | CNCCC(Oc1ccc(Cl)cc1)c1cccs1 (stereo not drawn) [Example 27, N-Methyl-3-(4-chlorophenoxy)-3-(2-thienyl)propanamine oxalate] | 59 | 91 | – | –
20 | CNCCC(Oc1ccc(C(F)(F)F)cc1)C1CCCCC1 (stereo not drawn) [Example 34, N-Methyl-3-[4-(trifluoromethyl)phenoxy]-3(cyclohexyl)propanamine oxalate] | 285 | 79 | – | –
21 | CNCCC(Oc1ccc(OC)cc1)c1cccs1 (stereo not drawn) [Example 28, N-Methyl-3-(4-methoxyphenoxy)-3-(2-thienyl)propanamine oxalate] | 260 | 50 | – | –
22 | CN(C)CCC(Oc1ccc(C(F)(F)F)cc1)c1ccsc1 (stereo not drawn) [Example 19, N,N-Dimethyl-3-[4-(trifluoromethyl)phenoxy]-3-(3-thienyl)propanamine oxalate] | – | 125 | 17 | –
23 | CN(C)CCC(Oc1ccc(C(F)(F)F)cc1)c1cccs1 (stereo not drawn) [Example 18, N,N-Dimethyl-3-[4-(trifluoromethyl)phenoxy]-3-(-22-thienyl)propanamine oxalate] | – | 190 | 15 | –
24 | Cc1ccc(OC(CCN(C)C)c2cccs2)cc1 (stereo not drawn) [Example 24, N,N-Dimethyl-3-(4-methylphenoxy)-3-(2-thienyl)propanamine oxalate] | 430 | 125 | – | –
25 | CN(C)CCC(Oc1ccc(C(F)(F)F)cc1)C1CCCCC1 (stereo not drawn) [Example 35, N,N-Dimethyl-3-[4-(trifluoromethyl)phenoxy]-3-(cyclohexyl)propanamine oxalate] | – | 260 | 21 | –
26 | CNCCC(Oc1cccc2ccccc12)c1cccs1 (single isomer, unassigned; (-)) [Example 39, (-)-N-methyl-3-(1-naphthalenyloxy)-3-(2-thienyl)propanamine oxalate] | – | – | – | IC50 ([1]; oxalate): 34 nM; IC50 (serotonin (5HT) uptake; oxalate): […]
27 | CN(C)CCC(Oc1ccc(C(F)(F)F)cc1)c1ccco1 (stereo not drawn) [Example 17, N,N-Dimethyl-3-[4-(trifluoromethyl)phenoxy]-3-(2-furanyl)propanamine oxalate] | – | – | – | percent inhibition at 1000 nM, NE (number in parentheses) ([1]; oxalate): 5%; IC50 (serotonin (5HT) uptake; oxalate): 210 nM
28 | CN(C)CCC(Oc1ccc(C(F)(F)F)cc1)c1ccco1 (stereo not drawn) [Example 21, N,N-Dimethyl-3-[4-(trifluoromethyl)phenoxy]-3-(2-furanyl)propanamine] | – | 140 | 14 | –
29 | CNCCC(Oc1ccc(Cl)c2ccccc12)c1cccs1 (stereo not drawn) [Example 11, N-Methyl-3-(4-chloro-1-naphthalenyloxy)-3-(2-thienyl)propanamine oxalate] | 77 | 49 | – | –
30 | CNCCC(Oc1ccc(C(F)(F)F)c2ccccc12)c1cccs1 (stereo not drawn) [Example 7, N-Methyl-3-[4-(trifluoromethyl)-1-naphthalenyloxy]-3-(2-thienyl)propanamineoxalate] | – | 95 | 46 | –
31 | CNCCC(Oc1ccc(C(F)(F)F)cc1)c1ccco1 (stereo not drawn) [Example 23, N-Methyl-3-[4-(trifluoromethyl)phenoxy]-3-(2-furanyl)propanamine oxalate] | 1100 | 54 | – | –
32 | CNCCC(Oc1ccc(C)cc1)c1cccs1 (stereo not drawn) [Example 26, N-Methyl-3-(4-methylphenoxy)-3-(2-thienyl)propanamine oxalate] | 22 | 112 | – | –
34 | CNCCC(Oc1ccc(C(F)(F)F)cc1)c1ccsc1 (stereo not drawn) [Example 22, N-Methyl-3-[4-(trifluoromethyl)phenoxy]-3-(3-thienyl)propanamine oxalate] | – | 100 | 36 | –
35 | COc1ccc(OC(CCN(C)C)c2cccs2)cc1 (stereo not drawn) [Example 29, N,N-Dimethyl-3-(4-methoxyphenoxy)-3-(2thienyl)propanamine oxalate] | – | 410 | 18 | –
